Assay results published in PubChem BioAssay (NCI).
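Values below derive from 48-hour exposures of cells grown in 96-well plates, with endpoints linearly interpolated between the two concentrations bracketing the appropriate inhibition level. GI50 = concentration required for 50% inhibition of growth. The concentration for full growth arrest is given as TGI.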

Columns and labels:
Experiment in all cases: NCI-60 cell line screen, 48 h
[1] = system: SR leukemia
[2] = system: UACC-62 melanoma
[3] = system: SK-OV-3 ovarian
[4] = system: SF-268 CNS
[5] = system: NCI/ADR-RES ovarian
[6] = system: HS 578T breast
[7] = system: BT-549 breast
[8] = system: SF-539 CNS
[9] = system: IGROV1 ovarian
[10] = system: DU-145 prostate
[11] = system: OVCAR-8 ovarian
[12] = system: T-47D breast
[13] = system: NCI-H226 lung
[14] = system: MDA-MB-231 breast
[15] = system: SF-295 CNS
[16] = system: MCF7 breast
[17] = system: CCRF-CEM leukemia
[18] = system: SK-MEL-2 melanoma
[19] = system: SNB-75 CNS
[20] = system: KM12 colon
[21] = system: SW-620 colon
[22] = system: SN12C renal
[23] = system: MALME-3M melanoma
[24] = system: OVCAR-4 ovarian
[25] = system: NCI-H23 lung
[26] = system: HCC-2998 colon
[27] = system: HCT-15 colon
[28] = system: SK-MEL-5 melanoma
[29] = system: HCT-116 colon
[30] = system: HOP-92 NSCLC
[31] = system: RPMI-8226 leukemia
[32] = system: NCI-H460 lung
[33] = system: EKVX NSCLC
[34] = system: ACHN renal
[35] = system: HL-60(TB) leukemia
[36] = system: MDA-MB-435
[37] = system: SK-MEL-28 melanoma
[38] = system: SNB-19 CNS
[39] = system: A549 NSCLC
[40] = system: HT29 colon
[41] = system: A498 renal
[42] = system: U251 CNS
[43] = system: MOLT-4 leukemia
[44] = system: NCI-H522 lung
[45] = system: UO-31 renal
[46] = system: HOP-62 NSCLC
[47] = system: 786-0 renal
[48] = system: CAKI-1 renal
[49] = system: OVCAR-5 ovarian
[50] = system: RXF 393 renal
[51] = system: TK-10 renal
[52] = system: UACC-257 melanoma
[53] = system: LOX IMVI melanoma
[54] = system: M14 melanoma
[55] = system: OVCAR-3 ovarian
[56] = system: K-562 leukemia
[57] = system: COLO 205 colon
[58] = system: PC-3 prostate

## CC(C)c1ccc(COCc2cc(CN3CCCC3)c(O)c3ncccc23)cc1
[1]
  GI50: 0.323 µM
  TGI: 2.08 µM
[2]
  GI50: 0.318 µM
  TGI: 1.62 µM
[3]
  GI50: 0.639 µM
  TGI: 4.53 µM
[4]
  GI50: 0.673 µM
  TGI: 7.98 µM
[5]
  GI50: 0.0508 µM
  TGI: 0.84 µM
[6]
  GI50: 1.72 µM
  TGI: 7.54 µM
[7]
  GI50: 1.45 µM
  TGI: 8.57 µM
[8]
  GI50: 0.42 µM
  TGI: 2.04 µM
[9]
  GI50: 0.493 µM
  TGI: 4.36 µM
[10]
  GI50: 0.77 µM
  TGI: 9.72 µM
[11]
  GI50: 0.43 µM
  TGI: 2.15 µM
[12]
  GI50: 0.398 µM
  TGI: 4.37 µM
[13]
  GI50: 0.912 µM
  TGI: 3.19 µM
[14]
  GI50: 0.774 µM
  TGI: 3.27 µM
[15]
  GI50: 1.18 µM
  TGI: 6.26 µM
[16]
  GI50: 0.365 µM
  TGI: 1.52 µM
[17]
  GI50: 0.398 µM
  TGI: 3.91 µM
[18]
  GI50: 1.61 µM
  TGI: 4.53 µM
[19]
  GI50: 1.19 µM
  TGI: 11.5 µM
[20]
  GI50: 0.534 µM
  TGI: 3.13 µM
[21]
  GI50: 0.471 µM
  TGI: 2.38 µM
[22]
  GI50: 0.825 µM
  TGI: 4.6 µM
[23]
  GI50: 1.45 µM
  TGI: 8.12 µM
[24]
  GI50: 0.32 µM
  TGI: 1.41 µM
[25]
  GI50: 0.708 µM
  TGI: 3.13 µM
[26]
  GI50: 1.58 µM
  TGI: 6.03 µM
[27]
  GI50: 0.0655 µM
  TGI: 2.07 µM
[28]
  GI50: 0.302 µM
  TGI: 1.15 µM
[29]
  GI50: 0.348 µM
  TGI: 1.47 µM
[30]
  GI50: 1.67 µM
  TGI: 11.7 µM
[31]
  GI50: 0.601 µM
  TGI: 2.72 µM
[32]
  GI50: 0.395 µM
  TGI: 1.47 µM
[33]
  GI50: 0.746 µM
  TGI: 11.9 µM
[34]
  GI50: 0.149 µM
  TGI: 5.44 µM
[35]
  GI50: 0.314 µM
  TGI: 1.4 µM
[36]
  GI50: 0.855 µM
  TGI: 11.2 µM
[37]
  GI50: 0.768 µM
  TGI: 10.2 µM
[38]
  GI50: 0.772 µM
  TGI: 5.7 µM
[39]
  GI50: 0.645 µM
  TGI: 8.31 µM
[40]
  GI50: 2.64 µM
  TGI: 6.83 µM
[41]
  GI50: 0.778 µM
  TGI: 3.81 µM
[42]
  GI50: 0.466 µM
  TGI: 2.45 µM
[43]
  GI50: 0.378 µM
  TGI: 2.13 µM
[44]
  GI50: 0.287 µM
  TGI: 1.11 µM
[45]
  GI50: 0.127 µM
  TGI: 2.14 µM
[46]
  GI50: 0.367 µM
  TGI: 5.04 µM
[47]
  GI50: 0.468 µM
  TGI: 3.83 µM
[48]
  GI50: 0.146 µM
  TGI: 4.44 µM
[49]
  GI50: 1.43 µM
  TGI: 13.5 µM
[50]
  GI50: 0.878 µM
  TGI: 3.45 µM
[51]
  GI50: 0.409 µM
  TGI: 12.6 µM
[52]
  GI50: 0.783 µM
  TGI: 3.93 µM
[53]
  GI50: 0.334 µM
  TGI: 1.4 µM
[54]
  GI50: 0.351 µM
  TGI: 1.99 µM
[55]
  GI50: 0.403 µM
  TGI: 1.87 µM
[56]
  GI50: 0.374 µM
  TGI: 2.44 µM
[57]
  GI50: 3.34 µM
  TGI: 11.9 µM
[58]
  GI50: 0.657 µM
  TGI: 11.2 µM

## Cc1ccc(SC2=C(N(C)C)C(=O)c3ccccc3C2=O)cc1
[1]
  TGI: 3.84 µM
[2]
  TGI: 17.8 µM
[3]
  TGI: 41.9 µM
[4]
  TGI: 18.4 µM
[5]
  TGI: 6.35 µM
[6]
  TGI: > 27.6 µM
[7]
  TGI: 26.6 µM
[8]
  TGI: 9.71 µM
[9]
  TGI: 17.6 µM
[10]
  TGI: 23 µM
[11]
  TGI: 6.44 µM
[12]
  TGI: > 38 µM
[13]
  TGI: 25.8 µM
[14]
  TGI: 20.1 µM
[15]
  TGI: 25.6 µM
[16]
  TGI: 17.5 µM
[17]
  TGI: 17.5 µM
[18]
  TGI: 23.5 µM
[19]
  TGI: 43.5 µM
[20]
  TGI: 16.4 µM
[21]
  TGI: 16.1 µM
[22]
  TGI: 16.6 µM
[23]
  TGI: 18.4 µM
[24]
  TGI: 24.8 µM
[25]
  TGI: 10.4 µM
[26]
  TGI: 32.4 µM
[27]
  TGI: > 39.9 µM
[28]
  TGI: 8.6 µM
[29]
  TGI: 7.26 µM
[30]
  TGI: 18.3 µM
[31]
  TGI: 11.7 µM
[32]
  TGI: 18.5 µM
[33]
  TGI: 20.1 µM
[34]
  TGI: 21.4 µM
[35]
  TGI: 16.9 µM
[36]
  TGI: 1.22 µM
[37]
  TGI: 25.8 µM
[38]
  TGI: 29.6 µM
[39]
  TGI: 30.2 µM
[40]
  TGI: 31 µM
[41]
  TGI: 50.3 µM
[42]
  TGI: 23.7 µM
[43]
  TGI: 12.4 µM
[44]
  TGI: 10.5 µM
[45]
  TGI: 21.9 µM
[46]
  TGI: 23.6 µM
[47]
  TGI: > 32.2 µM
[48]
  TGI: 9.73 µM
[49]
  TGI: 40.3 µM
[50]
  TGI: 20.8 µM
[51]
  TGI: 21.6 µM
[52]
  TGI: 15.6 µM
[53]
  TGI: 24.6 µM
[54]
  TGI: 16.4 µM
[55]
  TGI: 2.96 µM
[56]
  TGI: 7.68 µM
[57]
  TGI: 51.5 µM
[58]
  TGI: 18.7 µM
